Experimental data from patent US4125606A, “Octapeptide useful for the treatment of diabetes” (Choay S.A., priority 1974, dated 1978).
Where no end group is shown, it is not given here.

Tests used:
[1] = target: glyceraldehyde 3-phosphate dehydrogenase (Homo sapiens, UniProt P04406); assay: Enzymatic effect in vitro: lifting of somantine inhibition of glyceraldehyde 3-phosphate dehydrogenase; format: biochemical
Protocol: In this test, the compound (I) was tested for its ability to raise the inhibition of a somantine extracted from a plasma with respect to the action of glyceraldehyde 3-phosphate dehydrogenase.
To this end, the activity of the enzyme in the presence successively of somantine alone, of the compound (I) alone, and finally in the presence of somantine and of the compound (I), were measured.
In this test, the glyceraldehyde 3-phosphate dehydrogenase was used at a concentration of 0.5 μg/ml, the somantine at 25 μg/ml, and the compound (I) at 50 μg/ml.
The method used for the measurements is that of Pihl and Lang (J. Biol. Chem 237: 1356-1362, 1962).

adult rabbits = assay: Effect on the in vivo effect of insulin: intravenous glucose test in the rabbit
Protocol: The assays were carried out in the course of the tests carried out to determine the resistance to glucose injected by the intravenous route in the rabbit.
These tests were done on adult rabbits, which had been subjected to prior fasting for 24 hours. Blood was drawn off and the glucose level in the blood samples was determined. The measurement was carried out by the ferricyanide method as adapted for the "Technicon Autoanalyser" (J. Biol. Chem. 120: 51-55, 1937). In this way the glucose level on fasting, then its variation after the intravenous injection of glucose, at the dose of 1 gram per kilo, was determined. These measurements were then renewed in rabbits which had received, 5 minutes after the glucose, an intravenous injection of the compound (1) (5 μg/kg).

mice [2] = assay: Influence on glycemia in mice after glucose injection; format: in vivo
Text: Influence of octapeptide (I) on glycemia has been determined in mice under conditions similar to those described for rabbits. The experiment included two series of tests aimed at studying the immediate effects and the prolonged effects.
In the first series of tests, a simultaneous injection of glucose and of the octapeptide (I) was made, and the lowering of glycemia with respect to that of control animals which had not received glucose, was followed as a function of time.
The injections were respectively of 0.25 g of glucose and 2 mg per kilo of body weight of the animal, namely about 40 μ/g, of octapeptide (I) or […].
In the second series of tests, the mice received the product before the injection of glucose. Three injections each of 40 μg of octapeptide (I) were administered respectively 72, 48 and 24 hours before the injection of glucose.

diabetic rats = assay: Effect on glycemia in diabetic animals; format: in vivo; details: diabetic rats fasted 4 hours; glucose 0.5 g/kg; octapeptide 2 μg/g
Protocol: In this test, the drop in glycemia was compared after the simultaneous injection of glucose, on the one hand, and, on the other hand, either of the octapeptide at the dosage of […], or of insulin, or again of both at once. In that latter case the dosage of octapeptide used was also 2 μg/g.
The tests were carried out on diabetic rats, kept fasting for 4 hours before the injection of glucose (at the dose of 0.5 g/kg of animal).

[3] = tested on: insulin receptors of lipid cells; assay: Insulin binding to trypsinated lipid cells; format: cell-based; details: octapeptide introduced into the medium; trypsinated cells alone no longer fix insulin
Text: In an attempt to elucidate the mechanism of action of the octapeptide (I) with respect to insulin, the phenomena were first studied at the level of the insulin receptors of lipid cells trypsinated to destroy said receptors.

hepatic cells = assay: Insulin binding to hepatic cells; format: cell-based
Protocol: In the same way, the ratio of insulin binding to hepatic cells placed in a suitable reaction medium was measured. When the medium contains octapeptide (I), the ratio of insulin binding to the hepatic cells increases. The result is similar if the said cells are incubated with octapeptide (I).

[4] = tested on: glucose receptors of the Langerhans islets; assay: Insulin liberated by Langerhans islets removed from treated animals; format: in vivo; details: islets removed one day or four days after injection; medium supplemented with glucose
Protocol: Finally, the effect of the octapeptide (I) on the glucose receptors of the Langerhans islets was determined. For this purpose, the octapeptide (I) was injected into animals.
One day or four days later, the animals were killed and the islets of Langerhans removed. The latter were placed in a reaction medium supplemented with glucose, and the amount of insulin liberated was determined and compared to controls.

mice [5] = assay: Tolerance: acute and subacute toxicity study in mice; format: in vivo; details: 1 month, daily dosages 5 to 10 times the active dosage
Protocol: An acute and subacute toxicity study was carried out on mice for 1 month, each mouse receiving daily dosages corresponding to 5 to 10 times the active dosage.

[6] = tested on: isolated hemidiaphragm of the rat; assay: Consumption of glucose in vitro, isolated rat hemidiaphragm; format: cell-based, Wistar albino male rats; details: related to the weight of tissue in grams and per hour; glucose 2 mg/ml, insulin 500 μU/ml, compound (I) 250 μg/ml
Protocol: To follow this consumption, the isolated hemidiaphragm of the rat in vitro was used. The method employed is that described by Park et al. (Effect of insulin on free glucose content of rat diaphragm in vitro - Amer. J. Physiol. 182: 12-16, 1955). The hemidiaphragm derived from Wistar albino male rats each weighing 200 to 250 g was used. The rats were fed freely for 7 days and then starved for 24 hours. The solutions studied contained 2 mg/ml of glucose, 500 μU/ml of insulin. The compound (I) was introduced at 250 μg/ml. The consumption of glucose related to the weight of tissue in grams and per hour was under these conditions: […]

Chain of glyceraldehyde 3-phosphate dehydrogenase (P04406 whole entry, species assumed): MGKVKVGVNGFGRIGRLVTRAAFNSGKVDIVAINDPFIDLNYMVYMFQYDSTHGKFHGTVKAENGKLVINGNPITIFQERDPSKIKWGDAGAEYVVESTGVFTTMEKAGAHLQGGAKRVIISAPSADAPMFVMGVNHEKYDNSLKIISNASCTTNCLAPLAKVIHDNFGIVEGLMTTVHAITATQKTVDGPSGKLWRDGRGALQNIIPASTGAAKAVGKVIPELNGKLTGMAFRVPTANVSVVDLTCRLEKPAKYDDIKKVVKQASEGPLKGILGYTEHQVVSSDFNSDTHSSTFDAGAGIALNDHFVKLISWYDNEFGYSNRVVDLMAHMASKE

Row | Substance | effect on the inhibiting effect of somantine (in words) ([1]; compound (I) 50 μg/ml together with somantine 25 μg/ml) | effect on the activity of the enzyme (in words) ([1]; compound (I) alone, 50 μg/ml) | decrease in the blood glucose level after intravenous glucose (in words) (adult rabbits; rabbits fasted 24 hours, glucose 1 g/kg i.v., compound 5 μg/kg i.v. 5 minutes after the glucose) | glucose level reached, compared with fasting level (in words) (adult rabbits; rabbits, glucose 1 g/kg i.v., compound 5 μg/kg i.v.) | persistence of the effect on carbohydrate metabolism (in words) (adult rabbits; similar tests at intervals of several days after the injection) | drop in glycemia, immediate effect (in words) (mice [2]; simultaneous injection of glucose 0.25 g and octapeptide 2 mg per kilo) | drop in glycemia, prolonged effect (in words) (mice [2]; three injections of 40 μg at 72, 48 and 24 hours before glucose, versus control mice receiving only glucose) | course of glycemia after glucose injection (in words) (diabetic rats) | insulin binding to trypsinated lipid cells (in words) [3] | ratio of insulin binding to hepatic cells (in words) (hepatic cells; cells incubated with octapeptide (I)) | ratio of insulin binding to hepatic cells (in words) (hepatic cells; medium contains octapeptide (I)) | level of liberated insulin compared to controls (in words) [4] | toxic effect, macro and microscopic studies (in words) (mice [5]) | Consumption of glucose [6] [mg]
1 | LSRLFDNA [compound (I), leucyl - seryl - arginyl - leucyl - phenylalanyl - aspartyl - asparaginyl - alanine] | inhibiting effect of somantine to be partly suppressed | practically without effect on the activity of the enzyme | decrease in the glucose level is greater | glucose level even reached values less than those which were measured in the fasting rabbits | persists several days | drop in glycemia distinctly more accentuated | more rapid drop in glycemia | glycemia is practically unmodified | the binding reappears | similar | increases | very substantial increase | not shown any toxic effect | 
2 | insulin: insulin; in the hemidiaphragm test 500 μU/ml in a 2 mg/ml glucose solution [reference compound] |  |  |  |  |  |  |  | decreases rapidly, stabilises, then rises again |  |  |  |  |  | 4.10 ± 0.15
